Test results published in ChEMBL document CHEMBL5029187 (J Med Chem, 2021).
pIC50: −log10 of the molar value. The source made the active and inactive calls. No cut-off for these calls is given here.

Assays:
SMMC-7721 = assay: Cytotoxicity against human SMMC-7721 cells assessed as reduction in cell viability incubated for 48 hrs by MTT assay; type: functional, cell-based; details: SMMC-7721, 48 h
HepG2 [1] = assay: Cytotoxicity against human HepG2 cells assessed as reduction in cell viability incubated for 48 hrs by MTT assay; type: functional, cell-based; details: HepG2, 48 h
HeLa = assay: Cytotoxicity against human HeLa cells assessed as reduction in cell viability incubated for 48 hrs by MTT assay; type: functional, cell-based
[2] = Prodrug activation assessed as increase in fluorescence intensity in presence of GSH at 10 uM incubated for 60 mins; details: 1 h
A549 = assay: Cytotoxicity against human A549 cells assessed as reduction in cell viability incubated for 48 hrs by MTT assay; type: functional, cell-based; details: A549, 48 h
[3] = Prodrug activation in TE buffer assessed as alterations in fluorescence intensity at 10 uM incubated for 60 mins; details: 1 h
[4] = Prodrug activation assessed as increase in ferro cytochrome c production in presence of GSH and SOD by cytochrome c reduction assay
[5] = Prodrug release in TE buffer assessed as increase in camptothecin level at 10 uM measured within 10 mins in the presence of GSH by HPLC analysis; type: ADME
[6] = Prodrug activation assessed as fluorescence intensity in presence of 5 mM GSH at 100 uM incubated for 12 hrs further incubated with selenol probe Probe 1 followed by addition of 1 mM GSH measured after 4 mins; details: 5000 µM
[7] = GSH reactivity assessed as oxidation of GSH to GSSG at 10 uM measured after 60 mins by HPLC analysis; type: ADME; details: 1 h
HepG2 [8] = assay: Inhibition of redox balance in human HepG2 cells assessed as reduction in GSH/GSSG ratio incubated for 24 hrs; type: functional, cell-based
HepG2 [9] = assay: Induction of ROS generation in human HepG2 cells assessed as increase in ROS accumulation for 6 hrs by DCFH-DA staining based fluorescence assay; type: functional, cell-based; details: dose 2-5 µM
[10] = Toxicity in BALB/c mouse xenografted with human HepG2 cells assessed as death at 45 mg/kg, ip administered for once every 3 days measured after 15 days; type: organism-based; details: in vivo, 360 h, time 15 day
[11] = Prodrug activation assessed as production of selenol intermediate concentration in the presence of GSH incubated with Probe 1
HepG2 [12] = assay: Antitumor activity against human HepG2 cells xenografted BALB/c mouse assessed as reduction in tumor growth at 30 mg/kg, ip administered for once every 3 days measured after 15 days; type: functional, organism-based; details: time 15.0 day
[13] = Toxicity in human HepG2 cells xenografted BALB/c mouse assessed as reduction in body weight at 30 mg/kg, ip administered for once every 3 days measured after 15 days; type: organism-based; parameters: scale not given: the % may be the effect or the level left; details: in vivo, 360 h, time 15 day
[14] = Prodrug activation in human HepG2 cells assessed as increase in camptothecin level by measuring fluorescence level at 10 uM by fluorescence microscopy; type: cell-based; details: hepg2, 10 µM, TDE = time-dependent effect, time 15-90 min
[15] = Prodrug activation in TE buffer assessed as fold change in fluorescence intensity at 10 uM in presence of GSH
HepG2 [16] = assay: Induction of apoptosis in human HepG2 cells assessed as increase in apoptotic cells for 48 hrs by FITC-annexin V/PI double staining based flow cytometry; type: functional, cell-based
[17] = Antitumor activity against human HepG2 cells xenografted BALB/c mouse assessed as reduction in tumor weight at 30 mg/kg, ip administered for once every 3 days measured after 15 days; type: functional; parameters: scale not given: the % may be the effect or the level left; details: time 15 day
[18] = Prodrug activation assessed as changes in fluorescence intensity in presence of GSH at 100 uM incubated for 12 hrs further incubated with selenol probe Probe 1
HepG2 [19] = assay: Inhibition of redox balance in human HepG2 cells assessed as reduction in cellular thiols incubated for 24 hrs; type: functional, cell-based
[20] = Prodrug activation assessed as increase in fluorescence intensity in presence of Cys at 10 uM incubated for 15 mins by HPLC analysis; details: 0.25 h
[21] = Drug uptake in human HepG2 cells increase in fluorescence level at 10 uM by fluorescence microscopy; type: ADME, cell-based; details: hepg2, 10 µM, TDE = time-dependent effect
HepG2 [22] = assay: Cytotoxicity against human HepG2 cells assessed as reduction in cell viability in presence of H2O2 incubated for 48 hrs by MTT assay; type: functional, cell-based

Row | Structure (SMILES) | pIC50 (SMMC-7721) | pIC50 (HepG2 [1]) | pIC50 (HeLa) | pIC50 (A549) | Drug metabolism [3] | other results
1 | CC[C@@]1(OC(=O)OC2(CO)C[Se][Se]C2)C(=O)OCc2c1cc1n(c2=O)Cc2cc3ccccc3nc2-1 | < 5.00 | 5.22 | 5.04 | < 5.00 | Metabolite_Notdetected | Drug metabolism [2]: Metabolite_Detected
2 | CC[C@@]1(OC(=O)NC2C[Se][Se]C2)C(=O)OCc2c1cc1n(c2=O)Cc2cc3ccccc3nc2-1 | < 5.00 | < 5.00 | < 5.00 | < 5.00 | Metabolite_Notdetected | Drug metabolism [2]: Metabolite_Notdetected
3 | CC[C@@]1(OC(=O)OCCCCCCO)C(=O)OCc2c1cc1n(c2=O)Cc2cc3ccccc3nc2-1 | < 5.00 | < 5.00 | < 5.00 | < 5.00 |  | 
4 | CC[C@@]1(OC(=O)OCC[Se][Se]CCO)C(=O)OCc2c1cc1n(c2=O)Cc2cc3ccccc3nc2-1 | 5.19 | 5.60 | 5.59 | 5.48 | Metabolite_Notdetected | Drug metabolism [4]: Not Active; Activity [5]: 90%; Drug metabolism [6]: Metabolite_Detected; Drug metabolism [7]: Metabolite_Detected; inhibition (HepG2 [8]): Active; Activity (HepG2 [9]): Active; Activity [10]: Toxic; Drug metabolism [11]: 104.4 µM; Activity (HepG2 [12]): Active; Activity [13]: < 10%; Drug metabolism [14]: Tde; fold change (FC) [15]: 10; Activity (HepG2 [16]): Active; Activity [17]: 75%; Activity [18]: Not Active; inhibition (HepG2 [19]): Active; Drug metabolism [20]: Metabolite_Detected
5 | CC[C@@]1(OC(=O)OCCSSCCO)C(=O)OCc2c1cc1n(c2=O)Cc2cc3ccccc3nc2-1 | < 5.00 | 5.31 | 5.02 | < 5.00 |  | Drug metabolism [5]: Metabolite_Notdetected
6 | CC[C@@]1(O)C(=O)OCc2c1cc1n(c2=O)Cc2cc3ccccc3nc2-1 [CAMPTOTHECIN] | < 5.00 | 5.46 | 5.08 |  |  | Activity [10]: Toxic; Drug uptake [21]: Tde; Activity (HepG2 [12]): Active; Activity [13]: < 10%; Activity (HepG2 [22]): Active; Activity [17]: 53%
7 | CC[C@@]1(OC(=O)NC2CCCC2)C(=O)OCc2c1cc1n(c2=O)Cc2cc3ccccc3nc2-1 | < 5.00 | < 5.00 | < 5.00 | < 5.00 |  | 
8 | CC[C@@]1(OC(=O)OC2CCCC2)C(=O)OCc2c1cc1n(c2=O)Cc2cc3ccccc3nc2-1 | < 5.00 | < 5.00 | < 5.00 | < 5.00 |  | 
